Measurements reported in ChEMBL document CHEMBL3525989 (Drug Metab Dispos, 2011).

Assays:
[1] = target: T1, CYP3A4 (Homo sapiens, UniProt P08684); experiment: (§1) Inhibition of recombinant CYP3A4 (unknown origin) expressed in baculosomes in presence of 1 mM NADPH; type: ADME; settings: human, recombinant CYP3A4 expressed in baculosomes
[2] = target: T2, Cytochrome P450 3A4 (Homo sapiens, UniProt P08684); experiment: as §1; type: ADME
[3] = target: T1, CYP3A4; experiment: Inhibition of recombinant CYP3A4 (unknown origin) expressed in baculosomes assessed as enzyme remaining activity at 10 uM measured after 1.5 min in presence of 1 mM NADPH; type: ADME; settings: read-out: Activity
[4] = target: T2, Cytochrome P450 3A4; experiment: Binding affinity to CYP3A4 (unknown origin); type: ADME; settings: read-out: Ks
[5] = target: T2, Cytochrome P450 3A4; experiment: Inhibition of recombinant CYP3A4 (unknown origin) expressed in baculosomes assessed as decrease in CYP3A4-CO binding at 10 uM preincubated for 5 mins measured after […] by LC-tandem mass spectrometry analysis in presence of 1 mM NADPH; type: ADME; settings: recombinant enzyme
[6] = target: T2, Cytochrome P450 3A4; experiment: Inhibition of recombinant CYP3A4 (unknown origin) expressed in baculosomes assessed as decrease in CYP3A4-CO binding at 10 uM preincubated for 5 mins measured after overnight washout with 100 mM potassium phosphate buffer by LC-tandem mass spectrometry analysis in presence of 1 mM NADPH; type: ADME; settings: recombinant enzyme
[7] = target: T2, Cytochrome P450 3A4; experiment: Inhibition of recombinant CYP3A4 (unknown origin) expressed in baculosomes in presence of 1 mM NADPH and 1 mM nucleophilic trapping agent methyl hydroxylamine; type: ADME; settings: recombinant enzyme
[8] = target: T2, Cytochrome P450 3A4; experiment: Inhibition of recombinant CYP3A4 (unknown origin) expressed in baculosomes in presence of 1 mM NADPH and 1 mM nucleophilic trapping agent catalase; type: ADME; settings: recombinant enzyme
[9] = target: T2, Cytochrome P450 3A4; experiment: Inhibition of recombinant CYP3A4 (unknown origin) expressed in baculosomes in presence of 1 mM NADPH and 1 mM nucleophilic trapping agent dimethyl pyrroline N-oxide; type: ADME; settings: recombinant enzyme
[10] = target: T2, Cytochrome P450 3A4; experiment: Inhibition of recombinant CYP3A4 (unknown origin) expressed in baculosomes in presence of 1 mM NADPH and 1 mM nucleophilic trapping agent superoxide dismutase; type: ADME; settings: recombinant enzyme
[11] = target: T2, Cytochrome P450 3A4; experiment: Inhibition of recombinant CYP3A4 (unknown origin) expressed in baculosomes in presence of 1 mM NADPH and 1 mM nucleophilic trapping agent N-acetyl lysine; type: ADME; settings: recombinant enzyme
[12] = target: T1, CYP3A4; experiment: Residual activity of recombinant CYP3A4 (unknown origin) expressed in baculosomes at 10 uM measured after 1.5 min in presence of 1 mM NADPH
[13] = target: T2, Cytochrome P450 3A4; experiment: Inhibition of recombinant CYP3A4 (unknown origin) expressed in baculosomes in presence of 1 mM NADPH and 1 mM nucleophilic trapping agent glutathione; type: ADME; settings: recombinant enzyme
[14] = target: T2, Cytochrome P450 3A4; experiment: Inhibition of recombinant CYP3A4 (unknown origin) expressed in baculosomes in presence of 1 mM NADPH and 1 mM nucleophilic trapping agent semicarbazide; type: ADME; settings: recombinant enzyme
[15] = target: T2, Cytochrome P450 3A4; experiment: Inhibition of recombinant CYP3A4 (unknown origin) expressed in baculosomes in presence of 1 mM NADPH and 1 mM nucleophilic trapping agent N-acetyl cysteine; type: ADME; settings: recombinant enzyme
[16] = target: T2, Cytochrome P450 3A4; experiment: Inhibition of recombinant CYP3A4 (unknown origin) expressed in baculosomes in presence of 1 mM NADPH and 1 mM nucleophilic trapping agent potassium cyanide; type: ADME; settings: recombinant enzyme

T2 sequence (P08684 whole entry): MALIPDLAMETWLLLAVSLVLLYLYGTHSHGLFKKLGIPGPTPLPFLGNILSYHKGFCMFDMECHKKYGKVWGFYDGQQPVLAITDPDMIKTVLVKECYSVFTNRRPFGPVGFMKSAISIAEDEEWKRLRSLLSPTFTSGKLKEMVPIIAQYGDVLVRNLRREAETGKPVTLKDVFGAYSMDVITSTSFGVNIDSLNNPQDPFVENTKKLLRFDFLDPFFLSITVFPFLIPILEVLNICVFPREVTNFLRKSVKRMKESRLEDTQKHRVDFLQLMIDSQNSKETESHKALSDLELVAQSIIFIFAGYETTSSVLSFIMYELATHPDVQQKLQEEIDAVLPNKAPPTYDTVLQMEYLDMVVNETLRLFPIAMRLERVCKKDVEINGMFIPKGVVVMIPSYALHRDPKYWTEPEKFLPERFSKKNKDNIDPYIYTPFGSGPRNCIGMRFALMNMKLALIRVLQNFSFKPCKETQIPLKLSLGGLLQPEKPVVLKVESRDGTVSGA
T1 sequence (P08684 whole entry): as above

Row | Compound | kinact [1] [s⁻¹] | Ki [2] [nM] | activity at 0.025 h, 10 µM [3] [%] | Kd [4] [nM] | inhibition (INH) [5] | inhibition (INH) [6] | inhibition (INH) [7] | inhibition (INH) [8] | inhibition (INH) [9] | inhibition (INH) [10] | inhibition (INH) [11] | residual activity at 0.025 h, 10 µM [12] [%] | inhibition (INH) [13] | inhibition (INH) [14] | inhibition (INH) [15] | inhibition (INH) [16]
1 | CC(C)[C@H]1c2ccc(F)cc2CC[C@]1(O)CCN(C)CCCc1nc2ccccc2[nH]1 | 0.00133 | 820 | 60 | 1390 | Active | Active | – | – | – | – | – | – | – | – | – | –
2 | COCC(=O)O[C@]1(CCN(C)CCCc2nc3ccccc3[nH]2)CCc2cc(F)ccc2[C@@H]1C(C)C [MIBEFRADIL] | – | – | – | – | Active | Active | Active | Active | Active | Active | Active | < 20 | Active | Active | Active | Active
